From patent US9758472B2, “Non-lactone carbocyclic and heterocyclic antagonists and agonists of bacterial quorum sensing” (WISCONSIN ALUMNI RESEARCH FOUNDATION, priority 2009, dated 2017)

Tests used:
[1] = molecular target: T1, LuxR (Aliivibrio fischeri, UniProt P35327); assay: cell-based; format: cell-based, Vibrio fischeri; parameters: The initial library was also tested in Vibrio fischeri ESI 114 (Δ-LuxI); endogenous in cells; host or cells: Vibrio fischeri ESI 114 (Δ-LuxI); details: for Antagonism, in words: V. fischeri strain; for Inhib %: thiolactone libraries, V. fischeri, synthetic ligands tested at 10 μM; for Antagonist, percent inhibition compared to a positive control: initial library (FIG. 4); for Antagonist, percent inhibition compared to a positive control / IC50: V. fischeri ESI 114 (Δ-LuxI); for IC50: dose response
T1 sequence (P35327 whole entry): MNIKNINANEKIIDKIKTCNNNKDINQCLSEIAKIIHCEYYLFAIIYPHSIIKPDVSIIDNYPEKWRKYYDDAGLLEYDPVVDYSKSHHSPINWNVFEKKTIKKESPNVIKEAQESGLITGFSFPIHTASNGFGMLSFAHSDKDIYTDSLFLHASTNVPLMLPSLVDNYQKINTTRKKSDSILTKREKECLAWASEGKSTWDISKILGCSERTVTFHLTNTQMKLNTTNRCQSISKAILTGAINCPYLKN
Description: (§1) The initial library was also tested in Vibrio fischeri ESI 114 (Δ-LuxI) [Lupp, C.; Urbanowski, M.; Greenberg, E. P.; Ruby, E. G., The Vibrio fischeri quorum-sensing systems ain and lux sequentially induce luminescence gene expression and are important for persistence in the squid host. Mol. Microbiol. 2003, 50 (1), 319-331] and Agrobacterium tumefaciens WCF (pCF372). […] J. Bacteriol. 1998, 180 (20), 5398-5405.] […] [Geske, G. D.; O'Neill, J. C.; Miller, D. M.; Mattmann, M. E.; Blackwell, H. E., Modulation of Bacterial Quorum Sensing: Systematic Evaluation of N-Acylated Homoserine Lactones in Multiple Species and New Insights into Their Mechanism of Action. J. Am. Chem. Soc. 2007, 129, 13613-13625.]

[2] = molecular target: T2, LasR (Pseudomonas aeruginosa, UniProt P25084); assay: LasR agonism assay, P. aeruginosa PA01 MW1 (pUM15) YFP reporter strain; format: cell-based; details: for EC50: dose response; for Act %: thiolactone libraries, P. aeruginosa, synthetic ligands tested at 10 μM; for Agonist, percent of activation compared to the positive control: initial library (FIG. 4), P. aeruginosa PA01 MW1
T2 construct: expressed in transfected cells; host or cells: Escherichia coli DH5α (pJN105L+pSC11)
T2 sequence (P25084 whole entry): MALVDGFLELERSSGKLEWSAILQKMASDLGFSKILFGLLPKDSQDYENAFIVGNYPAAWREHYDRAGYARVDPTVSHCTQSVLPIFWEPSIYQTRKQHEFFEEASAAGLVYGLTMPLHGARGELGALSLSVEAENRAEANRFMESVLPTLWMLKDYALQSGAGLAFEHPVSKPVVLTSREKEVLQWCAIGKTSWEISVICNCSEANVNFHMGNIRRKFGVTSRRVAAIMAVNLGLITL
Description: (§2) The black bars are DH5α (pJN105L+pSC11) and the grey bars are PA01 MW1 (pUM15). Agonism positive control=activity of the reporter strain at full turn on for the strain. […] Negative control (Neg)=bacteria in the absence of natural and synthetic ligand. Error bars=standard deviation of the mean of triplicate samples.
(§3) The initial library was tested for LasR agonistic and antagonistic activity in two strains: Escherichia coli DH5α (pJN105L+pSC11) [Lee, J. H.; Lequette, Y.; Greenberg, E. P., Activity of purified QscR, a Pseudomonas aeruginosa orphan quorum-sensing transcription factor. Mol. Microbiol. 2006, 59 (2), 602-609] and P. aeruginosa PA01 MW1 (pUM15) [Muh, U.; Schuster, M.; Heim, R.; Singh, A.; Olson, E.; Greenberg, E. P., Novel Pseudomonas aeruginosa Quorum-Sensing Inhibitors Identified in an Ultra-High-Throughput Screen. Antimicrob. Agents Chemother. 2006, 50, 3674-3679] (FIGS. 5A and 5B). Both strains allow for synthetic autoinducer mimic evaluation and contain a reporter gene that allows for a quantitative readout of QS activity. DH5α (pJN105L+pSC11) is a heterologous β-galactosidase E. coli reporter strain containing a plasmid for the P. aeruginosa LasR gene. The PA01 MW1 (pUM15) strain uses the natural P. aeruginosa background containing a LasI deletion and the gene for yellow fluorescent protein (YFP) under the control of the LasI promoter to evaluate the LasI/R activity. Since the PA01 MW1 (pUM15) strain evaluates LasR in the natural P. aeruginosa background, in contrast to the heterologous E. coli strain, an improved idea of the interplay between the isolated LasI/R system and the combination of LasI/R with other QS subsystems such as QscR can be determined. Furthermore, additional nuances of the natural system such as compound permeability are incorporated in assays using the PA01 MW1 (pUM15) strain.

[3] = molecular target: TraR (Agrobacterium tumefaciens, UniProt P33905); assay: cell-based; format: cell-based; parameters: and Agrobacterium tumefaciens WCF (pCF372); endogenous in cells; host or cells: Agrobacterium tumefaciens WCF (pCF372); details: for Inhib %: thiolactone libraries, A. tumefaciens, synthetic ligands tested at 10 μM; for IC50: dose response
Sequence of TraR (P33905 whole entry): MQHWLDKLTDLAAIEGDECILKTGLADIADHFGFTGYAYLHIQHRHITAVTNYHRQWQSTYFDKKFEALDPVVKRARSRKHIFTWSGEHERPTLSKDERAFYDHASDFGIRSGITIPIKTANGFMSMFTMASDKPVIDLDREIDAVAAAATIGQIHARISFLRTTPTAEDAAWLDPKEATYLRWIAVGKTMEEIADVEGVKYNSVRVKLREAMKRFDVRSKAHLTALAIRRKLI
Description: as §1

[4] = molecular target: T2, LasR; assay: LasR agonism assay, E. coli DH5α (pJN105L+pSC11) β-galactosidase reporter strain; format: cell-based, P. aeruginosa; details: for LasR agonism, in words / EC50 / Agonist, percent of activation compared to the positive control: E. coli DH5α (pJN105L+pSC11); for EC50: dose response; for Act %: thiolactone libraries, E. coli, synthetic ligands tested at 10 μM; for Agonist, percent of activation compared to the positive control: initial library (FIG. 4)
Description: as §2, §3

[5] = molecular target: T2, LasR; assay: LasR antagonism assay, E. coli DH5α (pJN105L+pSC11) β-galactosidase reporter strain; format: cell-based, P. aeruginosa; details: thiolactone libraries, synthetic ligands tested at 10 μM
[6] = molecular target: T2, LasR; assay: LasR antagonism assay, P. aeruginosa PA01 MW1 (pUM15) YFP reporter strain; format: cell-based; details: for LasR antagonism, in words: P. aeruginosa PA01 MW1 (pUM15), natural background; for Antagonist, percent inhibition compared to a positive control: initial library (FIG. 4), P. aeruginosa PA01 MW1, negative values indicate agonist properties
Description: (§4) FIG. 5B is a bar graph showing the results of […] assay for initial heterocyclic and carbocyclic library (Scheme 1) shown as a percent of the positive control. Antagonism positive control (Pos)=activity of the reporter strain in the absence of synthetic ligand at the EC50 value for the strain. […] Negative control (Neg)=bacteria in the absence of natural and synthetic ligand. Error bars=standard deviation of the mean of triplicate samples.
as §3

[7] = molecular target: T2, LasR; assay: LasR antagonism assay, E. coli DH5α (pJN105L+pSC11) β-galactosidase reporter strain; format: cell-based, P. aeruginosa; details: E. coli DH5α (pJN105L+pSC11); for Antagonist, percent inhibition compared to a positive control: initial library (FIG. 4), negative values indicate agonist properties; for IC50: dose response
Description: as §4, §3

[8] = molecular target: T1, LuxR; details: V. fischeri ESI 114 (Δ-LuxI); for Agonist, percent of activation compared to the positive control: initial library (FIG. 4)
Description: as §1

Compound	Act % [2] [%]	Inhib % [3] [%]	Inhib % [1] [%]	Act % [4] [%]	Inhib % [5] [%]	further results
CCOC(=O)CNC(=O)CCc1cccc(I)c1 [Compound 34]						Antagonism, in words [1]: excellent antagonistic activity
CCCCCCCCCCCC(=O)N[C@H]1CCSC1=O [Compound 25E]	42	6	57	4	−93	EC50 ([2]; P. aeruginosa PA01 MW1 (pUM15)): 21000 nM; LasR agonism, in words [4]: strong agonists; EC50 [4]: 1900 nM
CCCCCCCCCC(=O)CC(=O)NC1CCSC1=O (stereo not shown) [Compound 1]	88	92	99	94	−40	Agonist, percent of activation compared to the positive control [2]: 88%; Antagonism, in words ([3]; A. tumefaciens strain): good antagonist; Antagonist, percent inhibition compared to a positive control ([3]; initial library (FIG. 4), A. tumefaciens WCF (pCF372), negative values indicate agonist properties): 65%; Antagonism, in words [1]: good antagonist; Antagonist, percent inhibition compared to a positive control [1]: 92%; Agonist, percent of activation compared to the positive control [4]: 94%
CCCCCCCCCC(=O)CC(=O)Nc1ccccc1 [Compound 2]						LasR antagonism, in words [6]: antagonism capabilities; Antagonist, percent inhibition compared to a positive control [6]: 28.7%; LasR antagonism, in words [7]: antagonism capabilities; Antagonist, percent inhibition compared to a positive control [7]: 53.7%
O=C(Cc1cccc([N+](=O)[O-])c1)N[C@H]1CCSC1=O [Compound 19E]	3	30	30	81	−3	EC50 [4]: 4100 nM; EC50 ([8]; dose response): 11000 nM
O=C(Cc1ccc(-c2ccccc2)cc1)N[C@H]1CCSC1=O [Compound 23E]	1	26	85	0	45	IC50 [1]: 350 nM; IC50 [7]: 2900 nM
O=C(Cc1ccccc1)N[C@H]1CCSC1=O [Compound 21E]	17	13	30	3	61	IC50 [7]: 2500 nM
CCCCCCCCCC(=O)CC(=O)NCc1ccc(OC)cc1 [Compound 14]						LasR antagonism, in words [6]: slight antagonism; Antagonist, percent inhibition compared to a positive control [6]: 37.8%; Antagonist, percent inhibition compared to a positive control [1]: 14.6%; Antagonist, percent inhibition compared to a positive control [7]: −67.7%; LasR agonism, in words [4]: strongly agonized; Agonist, percent of activation compared to the positive control [4]: 73.0%
O=C(Cc1ccc(Br)cc1)N[C@H]1CCSC1=O [Compound 18E]	5	25	91	8	68	IC50 [1]: 770 nM; IC50 [7]: 400 nM
COc1ccc(CC(=O)NC2CCSC2=O)cc1 (racemic) [Compound 20]	7	−107	70	1	51	
CCCCCCCCCC(=O)CC(=O)NCc1ccco1 [Compound 10]						Antagonist, percent inhibition compared to a positive control [6]: 25.5%; Agonist, percent of activation compared to the positive control [8]: 3.3%
O=C(Cc1ccccc1)NC1CCSC1=O (racemic) [Compound 21]	2	−22	34	2	65	
O=C(Cc1cccc([N+](=O)[O-])c1)NC1CCSC1=O (racemic) [Compound 19]	5	33	19	82	−13	
CCCCCC(=O)N[C@H]1CCSC1=O [Compound 28E]	20	−78	93	1	59	IC50 [1]: 840 nM; IC50 [7]: 1100 nM
CCCC(=O)CC(=O)N[C@H]1CCSC1=O [Compound 30E]	76	93	62	6	−119	EC50 ([2]; P. aeruginosa PA01 MW1 (pUM15)): 13000 nM; IC50 ([3]; A. tumefaciens WCF (pCF372)): 3200 nM; EC50 [4]: 130 nM
CCCCCCCCCC(=O)CC(=O)NC1CCCC1 [Compound 3]						LasR agonism, in words ([2]; P. aeruginosa PA01 MW1 (pUM15), natural background): agonist; Agonist, percent of activation compared to the positive control [2]: 54.2%; Antagonism, in words [1]: modest antagonist; Antagonist, percent inhibition compared to a positive control [1]: 89.4%; LasR agonism, in words [4]: agonist; Agonist, percent of activation compared to the positive control [4]: 83.5%
COc1ccc(CC(=O)N[C@H]2CCSC2=O)cc1 [Compound 20E]	4	−24	59	0	48	IC50 [7]: 7200 nM
CCCCCCCC(=O)N[C@H]1CCSC1=O [Compound 26E]	0	99	80	85	64	IC50 ([3]; A. tumefaciens WCF (pCF372)): 2800 nM; IC50 [1]: 130 nM; IC50 [7]: 140 nM
CCCCCCC(=O)N[C@H]1CCSC1=O [Compound 27E]	0	78	78	8	78	IC50 ([3]; A. tumefaciens WCF (pCF372)): 10000 nM; IC50 [1]: 310 nM; IC50 [7]: 790 nM
O=C(Cc1ccc(-c2ccccc2)cc1)NC1CCSC1=O (racemic) [Compound 23]	3	9	98	9	56	
O=C(Cc1ccc(Br)cc1)NC1CCSC1=O (racemic) [Compound 18]	8	−60	97	2	80	
O=C(CCc1c[nH]c2ccccc12)NC1CCSC1=O (racemic) [Compound 22]	10	−80	68	4	16	
CCCCCCCCCC(=O)CC(=O)NCc1ccccc1F [Compound 7]						Antagonist, percent inhibition compared to a positive control [7]: 38.8%; Agonist, percent of activation compared to the positive control [8]: 3.1%
CCCC(=O)N[C@H]1CCSC1=O [Compound 29E]	22	−70	42	4	17	
